Patent publication US20080096967A1, “Formulations for Injection of Catecholic Butanes, Including Ndga Compounds, Into Animals” (priority 2005, published 2008)

Experiments:
[1] = tested on: Beagle dogs; assay: 7-Day intravenous infusion toxicity study of M4N(CPE) in Beagle dogs; type: in vivo
Protocol: This study was conducted to evaluate the toxicokinetic profile of M4N formulated in 30% HP-β-CD and 25% PEG 300 when administered as a single intravenous infusion dose for seven consecutive days in beagle dogs. This study constitutes the first study of this particular formulation of M4N in dogs and was executed to evaluate the toxicity and compare tolerability of a diluted formulation (10 mg/mL versus 5 mg/mL).
A total of twelve beagle dogs (8 male/4 female) were dosed with M4N via a 54-minute (Group 2) or 108-minute (Groups 1, 3 and 4) intravenous infusion. All animals received seven doses, one per day over seven consecutive days.
The following parameters were evaluated: clinical observations and body weights. Test article analysis was performed on Study Days 1 and 7, blood samples (targeting a volume of 2.0 mL) were collected from each animal from an appropriate vessel at the following time points:
Gross necropsies were performed on Groups 1 and 3 animals and all injection sites were processed for histology. […] Discolored urine appeared in Groups 1 and 3. […] The finding is likely indicative of irritation due to multiple needle insertions in the same dosing area (cephalic vein). […] Finally, sporadic observations of diarrhea, emesis, mucoid feces and soft feces were noted. These observations are common in beagle dogs and were considered stress-induced and not test article-related.

[2] = 40 mg/mL M4N/PEG 300 stability: RP-HPLC analysis; type: physicochemical
Protocol: The stability of 40 mg/mL M4N dissolved in 100% PEG 300 was evaluated up to 24 hours incubation at 30° C., 45° C. and 60° C. A stock 40 mg/mL M4N in PEG 300 was prepared at 60° C., following the procedure set forth in Example 17. Subsequently, aliquots were removed and incubated at the appropriate temperature. Samples were rotated at 450 rpm during the entire course of incubation. Visual observations and RP-HPLC data were collected throughout. […] The formation of crystals coincided with a loss of soluble M4N (Table 30). The 40 mg/mL M4N/PEG 300 samples incubated at 45° C. and 60° C. were stable after 24 hours incubation as assessed by visual observations and RP-HPLC analysis (Tables 29 and 30).

[3] = tested on: C-33A, an HPV-negative human cervical cancer cell line; assay: Cell proliferation and cell death, trypan blue exclusion, C-33A cells; type: cell-based; conditions: for Proliferation Rate: treated/untreated cells
Protocol: M4N in 10% (w/v) HP-β-CD and 25% (v/v) PEG 300 (hereafter, the “CPE formulation”), M4N in 30% (w/v) HP-β-CD and 25% (v/v) PEG 300 (hereafter, the “CPE 25/30 formulation”) and M4N in 27% (w/v) HP-β-CD and 33% (v/v) PEG 300 (hereafter, the “CPE 33/27 formulation”) was tested for their effects on cell death and proliferation on two different tumor cell lines: HeLa, an HPV-18 positive human cervical cancer cell line, and C-33A, an HPV-negative human cervical cancer cell line M4N in DMSO was also tested in parallel. Both tumor cell lines were treated with increasing amounts of M4N: 0 μM, 20 μM, 40 μM, 60 μM and 80 μM, for 72 hr with the DMSO or the CPE formulation. Each formulation was added to total 1% of the growth media (Minimal Essential Medium with L-glutamine supplemented with 10% fetal bovine serum, 1 mM sodium pyruvate, 1× non-essential amino acid solution, and 1,000 IU/mL penicillin/1,000 μg/mL streptomycin solution). Control cells were grown under the same conditions and were left untreated. After 72 hr of treatment or no treatment, the total number of cells and the number of live cells in each sample were counted, using the trypan blue exclusion method. The cell proliferation rate and the percentage of dead cells in each sample were analyzed. Results of this experiment are shown in FIG. 1, FIG. 2, and Tables 6 through 12.
FIG. 1 is a graphical representation of the ratio of the number of treated cells/number of untreated cells plotted against increasing concentrations of M4N in either the DMSO formulation or the CPE formulation for treatment of the C-33A cells and HeLa cells. FIG. 2 is a graphical representation of the percentage of dead cells plotted against increasing concentrations of M4N and in either DMSO formulation or the CPE formulation for treatment of the two cancer cell lines, C-33A and HeLa cells in culture.

[4] = M4N 20 μM in CPE formulation, 72 hr
[5] = M4N 60 μM in CPE formulation, 72 hr
[6] = M4N 80 μM in CPE formulation, 72 hr

SMILES: COc1ccc(C[C@@H](C)[C@@H](C)Cc2ccc(OC)c(OC)c2)cc1OC [Formulation M4N, meso-1,4-bis(3,4-dimethoxyphenyl)-2,3-dimethylbutane]
- injection site histology, treated vs controls ([1]; Group 3 (90 mg/kg) vs Group 1 (vehicle)): more irritating than the vehicle
- gross necropsy findings ([1]; Groups 1 and 3): No other gross findings
- detailed clinical observations ([1]; Groups 2, 3 and 4 (45 or 90 mg/kg), daily IV infusion for 7 days, 30% HP-β-CD and 25% PEG 300): transient reversible uncoordination of hindlimbs
- impurities peaks ([2]; 40 mg/mL M4N/PEG 300, 30° C., 45° C. and 60° C.): No changes
- loss in soluble M4N ([2]; 40 mg/mL M4N/PEG 300, 24 hours at 30° C.): > 5%
- cell death, share of the cell population ([3]; 80 μM or […] M4N in CPE formulation): about 20%
- cell death, share of the cell population ([3]; 80 μM or […] M4N in DMSO formulation): about 40%
- M4N sufficient to cause about a 50% inhibition in cell proliferation ([3]; CPE formulation, 72 hr): ~7.2 µg/mL
- % Dead Cells [3, 4]: 7.0%
- % Viability [3, 4]: 93.0%
- Proliferation Rate [3, 4]: 0.43
- % Dead Cells ([3]; M4N 20 μM in DMSO, 72 hr): 17.4%
- % Viability ([3]; M4N 20 μM in DMSO, 72 hr): 82.6%
- Proliferation Rate ([3]; M4N 20 μM in DMSO, 72 hr): 0.20
- Proliferation Rate ([3]; M4N 40 μM in CPE formulation, 72 hr): 0.43
- % Dead Cells ([3]; M4N 40 μM in DMSO, 72 hr): 33.0%
- % Viability ([3]; M4N 40 μM in DMSO, 72 hr): 67.0%
- Proliferation Rate ([3]; M4N 40 μM in DMSO, 72 hr): 0.15
- % Dead Cells [3, 5]: 10.6%
- % Viability [3, 5]: 89.4%
- Proliferation Rate [3, 5]: 0.22
- % Dead Cells ([3]; M4N 60 μM in DMSO, 72 hr): 39.6%
- % Viability ([3]; M4N 60 μM in DMSO, 72 hr): 60.4%
- Proliferation Rate ([3]; M4N 60 μM in DMSO, 72 hr): 0.14
- % Dead Cells [3, 6]: 22.5%
- % Viability [3, 6]: 77.5%
- Proliferation Rate [3, 6]: 0.15
- % Dead Cells ([3]; M4N 80 μM in DMSO, 72 hr): 43.3%
- % Viability ([3]; M4N 80 μM in DMSO, 72 hr): 56.7%
- Proliferation Rate ([3]; M4N 80 μM in DMSO, 72 hr): 0.11
- Cell proliferation rate ([3]; M4N in DMSO or CPE formulation vs non-M4N-treated controls in the same formulation): reduced
